The source of these data is patent US10468722B2, “Organic synthesis applications of non-aqueous fluoride salt solutions” (CALIFORNIA INSTITUTE OF TECHNOLOGY, priority 2015, dated 2019).

Series [1] can be described thus: physchem. The note with it: for Solubility in fluorinated solvents (in words): 3-fluorobenzonitrile and BTFE, useful concentrations e.g. >0.05 M; for Solubility vs. TMAF: in 3-fluorobenzonitrile, relative to TMAF; for solubility: organic solvent or mixture. As to the method:
NpMe3NF is determined to be soluble in a given solvent if the concentration of NpMe3NF dissolved within the solvent is greater than 0.05 M.

Series [2] can be described thus: NpMe3NF stability in various solvents by 1H and 19F NMR. The class given is physicochemical. As to the method: NpMe3NF stability in various solvents is analyzed by ^1H and ^19F NMR measurements. Preliminary criteria used for a solvent being “chemically stable” to the F^− ion are observation of a clear, sharp peak in the ^19F spectrum, alongside a 1:1:1 triplet arising from the DF2^− formation from the deuterated acetonitrile solvent (CD3CN).

Setting [3] is: in 2,6-difluoropyridine (2,6-F2Py).
Setting [4] is: in 3-methoxypropionitrile (3-MeOPN).

Turning to `CC(C)(C)C[N+](C)(C)CC(C)(C)C.[F-]` [Np2Me2NF, bis(2,2-dimethylpropyl)dimethylammonium fluoride], in series [1], the “Solubility in fluorinated solvents (in words)” value is “significantly higher solubility”, the “Solubility vs. TMAF” value is >10x and the solubility turned out to be 340 mM.
For the compound `CC(C)(C)C[N+](C)(C)C.[F-]` [NpMe3NF, (2,2-dimethylpropyl)trimethylammonium fluoride], the “Solubility in fluorinated solvents (in words)” value in series [1] is listed as “significantly higher solubility”. For the same compound, the “Approximate Solubility” value turned out to be 110 mM in series [1] (in 1,3-Dimethyl-3,4,5,6-tetrahydro-2(1H)-pyrimidinone (DMPU)); 950 mM in series [1] (in 2,2,2-trifluoroethyl trifluoroacetate (TFE-TFA)); 400 mM in series [1] (in 2,3-difluorobenzonitrile (2,3-F2BN)); 390 mM in series [1] (setting [3]); 120 mM in series [1] (in 2-fluorobenzonitrile (2-FBN)); 190 mM in series [1] (in 3-fluorobenzonitrile (3-FBN)). Moreover, the “Approximate Solubility” value worked out at 780 mM in series [1] (setting [4]); 140 mM in series [1] (in (Dimethylamino)acetonitrile (DMAN)); 710 mM in series [1] (in Fluoroethylene carbonate (FEC)); 1050 mM in series [1] (in Tris(2,2,2-trifluoroethyl)phosphite (TTFP)); 800 mM in series [1] (in methoxyacetonitrile (MeOAN)); 470 mM in series [1] (in phenyl trifluoroacetate (PhTFA)). The “Approximate Solubility” value in series [1] (in propionitrile (PN)) was determined as 70 mM. Further, in series [1], the “Solubility vs. TMAF” value is given as >6x. In addition, in series [1], the solubility came out at 190 mM. Also, the “Stability (1H and 19F NMR)” value was “good stability” in series [2] (setting [3]); “poor stability” in series [2] (setting [4]); “good stability” in series [2] (in BTFE); “poor stability” in series [2] (in Bis(2,2,2-trifluoroethyl) carbonate (BTFEC)); “good stability” in series [2] (in propionitrile (PN)).

For orientation: solubility means the dissolved amount per volume that the medium holds.
